Data as given in the supplement of paper PMC10307832.

Tests used:
Experiment in all cases: relative viability (nuclei count vs DMSO), 5 days (fraction); higher = more cells survive
[1] = compound: CC1=CC(=C(N1C2=CC=C(C=C2)Cl)C)C(=O)CN3CCCCC3 [IU1-47] + Cc1cc(Nc2cc(N3CCN(C)CC3)nc(Sc3ccc(NC(=O)C4CC4)cc3)n2)n[nH]1 [Tozasertib] (partner 0.1 µM)
Procedure, shortened: (§1)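 The day after seeding in 1536-well plates, lung cancer cell lines were treated by pin tool with a single drug, or with a fixed anchor-drug dose together with five library-drug doses (not always all listed) in √10 steps. After 5 days, a combined fix-and-stain solution (final 0.05% Triton X-100, 1% formaldehyde, 1 ug/ml Hoechst) was added. Nuclei counted on 4× images gave relative viability as treated counts over vehicle counts, reported as the median of duplicate plates.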

[2] = compound: CC1=CC(=C(N1C2=CC=C(C=C2)Cl)C)C(=O)CN3CCCCC3 [IU1-47] + CS(=O)(=O)N1CCN(Cc2cc3nc(-c4cccc5[nH]ncc45)nc(N4CCOCC4)c3s2)CC1 [Pictilisib] (partner 1 µM)
Procedure, shortened: as §1

[3] = compound: CC1=CC(=C(N1C2=CC=C(C=C2)Cl)C)C(=O)CN3CCCCC3 [IU1-47] + C[C@]1(O)C[C@@H](c2nc(-c3ccc4ccc(-c5ccccc5)nc4c3)c3c(N)nccn32)C1 [Linsitinib] (partner 1 µM)
Procedure, shortened: as §1

[4] = compound: CC1=CC(=C(N1C2=CC=C(C=C2)Cl)C)C(=O)CN3CCCCC3 [IU1-47] + COc1cccc2cc(-c3nc([C@H]4CC[C@H](C(=O)O)CC4)n4ncnc(N)c34)[nH]c12 [OSI-027] (partner 0.5 µM)
Procedure, shortened: as §1

| Cell Line | relative viability ([1]; first compound 0.08 µM) | relative viability ([1]; first compound 0.253 µM) | relative viability ([1]; first compound 0.8 µM) | relative viability ([1]; first compound 2.53 µM) | relative viability ([1]; first compound 8 µM) | relative viability ([2]; first compound 0.08 µM) | relative viability ([2]; first compound 0.253 µM) | relative viability ([2]; first compound 0.8 µM) | relative viability ([2]; first compound 8 µM) | relative viability ([3]; first compound 0.08 µM) | relative viability ([3]; first compound 0.253 µM) | relative viability ([3]; first compound 0.8 µM) | relative viability ([3]; first compound 8 µM) | relative viability ([4]; first compound 0.08 µM) | relative viability ([4]; first compound 0.253 µM) | relative viability ([4]; first compound 0.8 µM) | relative viability ([4]; first compound 2.53 µM) | relative viability ([4]; first compound 8 µM) | relative viability ([2]; first compound 2.53 µM) | relative viability ([3]; first compound 2.53 µM) |
| --- | --- | --- | --- | --- | --- | --- | --- | --- | --- | --- | --- | --- | --- | --- | --- | --- | --- | --- | --- | --- |
| NCI-H1651 | 0.717 | 0.58 | 0.753 | 0.72 | 0.762 | 0.526 | 0.575 | 0.573 | 0.468 | 1.22 | 1.14 | 1 | 0.771 | 0.651 | 0.717 | 0.726 | 0.671 | 0.622 | – | – |
| NCI-H1666 | 0.563 | 0.548 | 0.593 | 0.575 | 0.595 | 0.436 | 0.452 | 0.455 | 0.407 | 0.759 | 0.775 | 0.773 | 0.757 | 0.914 | 0.86 | 0.901 | 0.879 | 0.817 | 0.448 | 0.708 |
| NCI-H1734 | 0.299 | 0.252 | 0.264 | – | 0.235 | 0.463 | 0.442 | 0.464 | 0.427 | 0.883 | 0.954 | 0.876 | 0.781 | 0.703 | 0.659 | 0.662 | – | 0.565 | – | – |
| NCI-H1755 | 0.583 | 0.687 | 0.612 | 0.631 | 0.563 | 0.433 | 0.419 | 0.503 | 0.318 | 1.03 | 1.03 | 1.06 | 0.962 | 0.759 | 0.876 | 0.777 | 0.729 | 0.686 | 0.334 | 1.05 |
| NCI-H1793 | 0.346 | 0.319 | 0.296 | – | 0.299 | 0.284 | 0.293 | 0.363 | 0.262 | 0.822 | 0.868 | 0.976 | 0.689 | 0.245 | 0.25 | 0.37 | – | 0.286 | – | – |
| NCI-H1915 | 0.472 | 0.467 | 0.499 | – | 0.359 | 0.854 | 0.915 | 0.977 | 0.985 | 1.15 | 1.12 | 1.15 | 1.14 | 0.614 | 0.626 | 0.599 | – | 0.581 | – | – |
| NCI-H1944 | 0.231 | 0.248 | 0.265 | 0.283 | 0.265 | 0.361 | 0.371 | 0.335 | 0.356 | 1.23 | 1.2 | 1.13 | 1.1 | 0.401 | 0.357 | 0.411 | 0.444 | 0.376 | – | – |
| NCI-H1975 | 0.925 | 0.85 | 0.719 | 0.882 | 0.487 | 0.274 | 0.293 | 0.305 | 0.256 | 1.06 | 1.17 | 1.11 | 0.752 | 0.69 | 0.817 | 0.779 | 0.94 | 0.531 | 0.281 | 0.98 |
| NCI-H1993 | 0.525 | 0.619 | 0.645 | 0.602 | 0.54 | 0.899 | 0.769 | 0.86 | 0.821 | 0.762 | 0.732 | 0.749 | 0.73 | 0.492 | 0.586 | 0.498 | 0.498 | 0.567 | 0.913 | 0.76 |
| NCI-H2009 | 0.782 | 0.781 | 0.751 | 0.77 | 0.662 | 0.876 | 0.948 | 0.815 | 0.882 | 1.19 | 1.19 | 1.13 | 1.24 | 0.662 | 0.672 | 0.676 | 0.558 | 0.593 | 0.369 | 1.24 |
| NCI-H2023 | 0.329 | 0.363 | 0.366 | 0.349 | 0.291 | 0.22 | 0.214 | 0.274 | 0.182 | 0.701 | 0.686 | 0.665 | 0.611 | 0.375 | 0.391 | 0.436 | 0.259 | 0.352 | 0.178 | 0.617 |
| NCI-H2085 | 0.903 | 0.79 | 0.705 | 0.835 | 0.774 | 0.445 | 0.426 | 0.422 | 0.447 | 0.828 | 0.917 | 1.06 | 0.846 | 0.724 | 0.748 | 0.872 | 0.531 | 0.729 | 0.47 | 0.912 |
| NCI-H2087 | 0.225 | 0.224 | 0.287 | – | 0.241 | 0.884 | 0.865 | 1.11 | 0.83 | 0.947 | 0.953 | 0.93 | 1 | 0.834 | 0.582 | 0.506 | – | 0.531 | 0.452 | 1.14 |
| NCI-H2126 | 0.905 | 0.866 | 0.818 | – | 0.737 | 0.47 | 0.477 | 0.52 | 0.493 | 0.733 | 0.76 | 0.74 | 0.778 | 0.729 | 0.883 | 0.673 | 0.539 | 0.649 | 0.382 | 0.531 |
| NCI-H2228 | 0.267 | 0.303 | 0.246 | 0.198 | 0.249 | 0.497 | 0.506 | 0.28 | 0.229 | 0.586 | 0.555 | 0.752 | 0.414 | 0.619 | 0.581 | 0.662 | 0.368 | 0.39 | 0.28 | 0.521 |
| NCI-H2347 | 0.561 | 0.518 | 0.632 | 0.51 | 0.445 | 0.505 | 0.651 | 0.446 | 0.457 | 1.06 | 0.997 | 0.973 | 0.954 | 0.318 | 0.456 | 0.43 | 0.398 | 0.375 | 0.448 | 0.946 |
| NCI-H2405 | 0.753 | 0.801 | 0.755 | 0.735 | 0.692 | 0.552 | 0.49 | 0.524 | 0.431 | 1.02 | 1.1 | 1.01 | 0.932 | 0.664 | 0.663 | 0.695 | 0.533 | 0.618 | – | – |
